# Columns and labels:
# K249A mutant OGG1 = molecular target: T1, K249A mutant OGG1 (Homo sapiens, UniProt O15527, K249A); test: AP-lyase assay on radiolabeled AP-site-containing oligonucleotide (PAGE); type: biochemical; details: Figure S8
# T1 construct: made in house
# OGG1 = molecular target: T2, OGG1 (Homo sapiens, UniProt O15527); test: Biochemical fluorescence (fluorophore-quencher) assay of OGG1 incision rate, 8-oxoA substrate; details: for AC50 / AC50 (CI95%): concentration giving 50% of the incision rate of OGG1 with APE1 (2 nM) control; for AC50: read-out: AC50 (CI95%); for AC50 (μM): biochemical assay of virtual screening hits (NCI samples), Table S1
# T2 construct: made in house
# NUDT15 = molecular target: T3, NUDT15 (Homo sapiens, UniProt Q9NV35); set-up: method as in Hank et al. 1 and Kehler et al. 2; details: reference compound; ref Hank et al. 1 and Kehler et al. 2; cited from earlier work
# T3 construct: made in house
# T3 sequence (Q9NV35 1-164): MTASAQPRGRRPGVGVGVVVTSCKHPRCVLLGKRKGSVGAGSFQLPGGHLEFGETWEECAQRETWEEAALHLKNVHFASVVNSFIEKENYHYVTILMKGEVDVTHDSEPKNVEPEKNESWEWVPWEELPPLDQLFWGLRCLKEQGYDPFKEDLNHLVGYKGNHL
# NUDT5 = molecular target: T4, NUDT5 (Homo sapiens, UniProt Q9UKK9); set-up: method as in Hank et al. 1 and Kehler et al. 2; details: reference compound; ref Hank et al. 1 and Kehler et al. 2; cited from earlier work
# T4 construct: made in house
# T2 sequence (O15527 whole entry): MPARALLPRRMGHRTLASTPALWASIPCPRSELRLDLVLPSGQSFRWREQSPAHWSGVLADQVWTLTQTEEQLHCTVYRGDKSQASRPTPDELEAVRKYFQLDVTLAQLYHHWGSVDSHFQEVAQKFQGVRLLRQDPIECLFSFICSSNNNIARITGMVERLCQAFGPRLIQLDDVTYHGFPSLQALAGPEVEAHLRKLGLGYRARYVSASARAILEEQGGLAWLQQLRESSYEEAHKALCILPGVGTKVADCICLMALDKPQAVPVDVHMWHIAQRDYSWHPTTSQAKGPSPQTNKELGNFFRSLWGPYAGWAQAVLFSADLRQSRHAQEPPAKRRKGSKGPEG
# T1 sequence (O15527 whole entry K249A): as the sequence (O15527 whole entry) above, with K249A counted along it
Compound,AC50 (μM) (OGG1),other results
"NCCc1c(-c2cncc(F)c2)[nH]c2ccc(O)cc12 [Compound 41, 3-(2-Aminoethyl)-2-(5-fluoropyridin-3-yl)-1H-indol-5-ol]",–,"restoration of AP-lyase activity of Lys249Ala mutant (K249A mutant OGG1): failed to restore AP-lyase activity; OGG1 activation, SAR result in words (OGG1): did not significantly affect potency; AC50 (OGG1): 0.74 µM"
"NCCc1c(-c2ccncc2)[nH]c2ccc(O)cc12 [Compound 43, 3-(2-Aminoethyl)-2-(pyridin-4-yl)-1H-indol-5-ol]",–,"OGG1 activation, SAR result in words (OGG1): lost activity; AC50 (CI95%) (OGG1): inactive"
"NCCc1c(-c2cncnc2)[nH]c2ccc(O)cc12 [Compound 44, 3-(2-Aminoethyl)-2-(pyrimidin-5-yl)-1H-indol-5-ol]",–,"OGG1 activation, SAR result in words (OGG1): slight increase in activity; AC50 (OGG1): 0.25 µM"
"NCCc1c(-c2cncs2)[nH]c2ccc(O)cc12 [Compound 45, 3-(2-Aminoethyl)-2-(thiazol-5-yl)-1H-indol-5-ol]",–,"OGG1 activation, SAR result in words (OGG1): slight increase in activity; AC50 (OGG1): 0.4 µM"
"CNCCc1c(-c2cccnc2)[nH]c2ccc(O)cc12 [Compound 46, 3-(2-(Methylamino)-ethyl)-2-(pyridin-3-yl)-1H-indol-5-ol]",–,AC50 (OGG1): 0.29 µM
"OCCc1c(-c2cccnc2)[nH]c2ccc(O)cc12 [Compound 47, 3-(2-Hydroxyethyl)-2-(pyridin-3-yl)-1H-indol-5-ol]",–,AC50 (OGG1): 8.7 µM; decrease of activity (OGG1; ethanol derivative versus amine 30): ~10 fold
"Cn1c(-c2cccnc2)c(CCN)c2cc(O)ccc21 [Compound 48, 3-(2-Aminoethyl)-1-methyl-2-(pyridin-3-yl)-1H-indol-5-ol]",–,"OGG1 activation, SAR result in words (OGG1): attenuated activity; AC50 (CI95%) (OGG1): inactive"
"NCCc1cncc(-c2cc3cc(O)ccc3[nH]2)c1 [Compound 49, 2-(5-(2-Aminoethyl)-pyridin-3-yl)-1H-indol-5-ol]",–,AC50 (CI95%) (OGG1): inactive
"NCCc1[nH]c2ccccc2c1-c1cccnc1 [Compound 50, 2-(3-(Pyridin-3-yl)-1H-indol-2-yl)-ethan-1-amine]",–,AC50 (OGG1): 28 µM
"NCCc1[nH]c2ccc(O)cc2c1-c1cccnc1 [Compound 51, 2-(2-Aminoethyl)-3-(pyridin-3-yl)-1H-indol-5-ol]",–,AC50 (CI95%) (OGG1): inactive
"NCCc1[nH]c2cc(F)c(O)cc2c1-c1cccnc1 [Compound 52, 2-(2-Aminoethyl)-6-fluoro-3-(pyridin-3-yl)-1H-indol-5-ol]",–,"OGG1 activation, SAR result in words (OGG1): some residual activity; AC50 (OGG1): 8.5 µM"
"NCCc1[nH]c2ccc(O)cc2c1-c1cncnc1 [Compound 53, 2-(2-Aminoethyl)-3-(pyrimidin-5-yl)-1H-indol-5-ol]",–,"OGG1 activation, SAR result in words (OGG1): some residual activity; AC50 (OGG1): 12 µM"
O=C(O)c1cccc(NC(C(=O)c2ccccc2)c2ccccc2)c1 (stereo not drawn) [NSC 4232],inactive,–
Cn1c(=O)c2[nH]c(C3CCCCC3)nc2n(C)c1=O [NSC 14383],inactive,–
Cc1ccc(NC(C(=O)c2ccccc2)c2ccccc2)cc1 (stereo not drawn) [NSC 26933],inactive,–
Cl.NC(=O)C1CCCN(Cc2c[nH]c3ccccc23)C1 (stereo not drawn) [NSC 32474],inactive,–
O=C(c1ccccc1)[C@H](Nc1ccc2ccccc2c1)c1ccccc1 [NSC 34924],inactive,–
O=C1OC(c2c[nH]c3ccccc23)c2ccccc21 (stereo not drawn) [NSC 42087],inactive,–
CC(N)Cc1c[nH]c2ccc(Cl)cc12.Cl (stereo not drawn) [NSC 50457],inactive,–
FC(F)(F)c1nc(Nc2ccccc2)c2[nH]cnc2n1 [NSC 56385],inactive,–
O=c1cc(Nc2ccc(Cl)c(Cl)c2)[nH]c(=O)[nH]1 [NSC 62573],inactive,–
CC(N)Cc1c[nH]c2ccccc12 (stereo not drawn) [NSC 97069],inactive,–
O=C1CCCCC1C(Nc1ccccc1)c1ccccc1 (stereo not drawn) [NSC 123043],inactive,–
NC(=O)C(O)c1c[nH]c2ccccc12 (stereo not drawn) [NSC 128331],inactive,–
Cc1[nH]c2ccccc2c(=O)c1CNCc1ccccc1 [NSC 133478],inactive,–
O=C1Nc2ccccc2C1=NCCc1c[nH]c2ccccc12 [NSC 136042],inactive,–

Compound,AC50 (μM) (OGG1),other results
OC1(Cc2ccccn2)c2ccccc2CC1c1ccccc1 (stereo not drawn) [NSC 147943],inactive,–
CCOc1ccccc1C1NC(=O)c2ccccc2N1 (stereo not drawn) [NSC 158389],inactive,–
O=C1NC(c2ccccc2Cl)Nc2ccccc21 (stereo not drawn) [NSC 175633],inactive,–
CC1(C)CC(=O)C2=C(C1)Nc1ccc(Cl)cc1NC2c1ccccc1 (stereo not drawn) [NSC 186216],inactive,–
O=C1CCCC2=C1C(c1ccncc1)Nc1ccccc1N2 (stereo not drawn) [NSC 186218],inactive,–
Cc1ccc2c(c1)Nc1ccccc1C(=O)N2 [NSC 202050],inactive,–
Cl.N[C@@H](Cc1c[nH]c2ccccc12)C(=O)OCc1ccccc1 [NSC 202376],inactive,–
Cc1nc(N)[nH]c(=O)c1CCCNc1cccc(C(F)(F)F)c1 [NSC 210448],inactive,–
O=c1[nH]cc(Cc2cccc(OCc3ccccc3)c2)c(=O)[nH]1 [NSC 210777],inactive,–
NC(=O)C1CCCN(C(=O)Nc2ccccc2F)C1 (stereo not drawn) [NSC 213798],inactive,–
COc1cc(OC)c(NC(=O)CC2SC(N)=NC2=O)cc1Cl (stereo not drawn) [NSC 247010],inactive,–
CC1=CC2C(c3ccccc3)Nc3ccccc3N2C1=O (stereo not drawn) [NSC 263759],inactive,–
O=C1c2ccccc2C(O)N1CCc1c[nH]c2ccccc12 (stereo not drawn) [NSC 338155],inactive,–
CNC1NC(=O)c2ccccc2N1Cc1ccc(F)cc1 (stereo not drawn) [NSC 364164],inactive,–
CCOC(=O)c1ccc2c(c1)NCc1cccc(OC)c1O2 [NSC 364889],inactive,–
Cl.NCCc1c[nH]c2ccccc12 [NSC 522258],inactive,–
CC1CC2=C(C(=O)O1)C(c1ccccc1)Nc1ccccc1N2 (stereo not drawn) [NSC 637579],inactive,–
CC(=O)C1CC(C)=CCC12C(=O)Nc1ccccc12 (stereo not drawn) [NSC 642717],inactive,–
O=C1Nc2ccccc2C12CCNC2Cc1ccccc1 (stereo not drawn) [NSC 643518],weak,–
c1ccc(C2Nc3ccccc3C3OCCCC23)cc1 (stereo not drawn) [NSC 645796],inactive,–
COc1ccccc1N1C(=O)CSC1c1c[nH]c2ccccc12 (stereo not drawn) [NSC 655348],inactive,–
CC(=O)N1C(C(=O)NC2CCCCC2)CSC1c1ccccc1 (stereo not drawn) [NSC 669300],inactive,–
O=C(NCCc1c(-c2ccccc2)[nH]c2ccccc12)C(F)(F)F [NSC 674639],inactive,–
O=C(c1ccc2[nH]ccc2c1)N1CCN(S(=O)(=O)c2ccc3[nH]c(=O)oc3c2)CC1 [TH1760],–,Reference inhibition (NUDT15): 96%
Cn1c(=O)c2c(nc(N3CCNCC3)n2Cc2nnc(-c3ccc(Cl)c(Cl)c3)o2)n(C)c1=O [TH5427],–,Reference inhibition (NUDT5): 99%
CN(C)Cc1c(-c2ccccc2)[nH]c2ccccc12 [TH12166],inactive,"OGG1 activation, SAR result in words (OGG1): inhibited activity; IC50 (OGG1; inhibition of OGG1): 15.5 µM"

# From article PMC12621200, “Giving an Enzyme Scissors: Serotonin Derivatives as Potent Organocatalytic Switches for DNA Repair Enzyme OGG1” (Journal of Medicinal Chemistry, 2025)
